The values below come from patent publication US8829194B2, “Crystalline forms of the sodium salt of (4-{4-[5-(6-trifluoromethyl-pyridin-3-ylamino)-pyridin-2-yl]-phenyl}-cyclohexyl)-acetic acid” (Novartis AG, priority 2010, dated 2014).

Read-outs that look alike come from different tables or passages of the source.

Common to all, as to type: physicochemical
Data set [1] can be described thus: Vacuum thermogravimetric analysis (VTGA): drying and re-exposure to ambient conditions. As to conditions: for hygroscopicity in words: concluded from VTGA re-exposure; for time until sample mass decreases to a steady value (drying complete): vacuum 50 mbar, 50° C., wet solid. How it is done:
The wet solid obtained by filtering the crystallization slurry is placed in a cup placed in a cell (i.e., a small chamber) and suspended form a microbalance; vacuum is applied to the cell, and the chamber is subsequently heated. The sample mass is monitored and recorded continuously, indicating when the sample drying is complete and if moisture uptake occurs when the cell is opened to the ambient atmosphere.
1.1149 g of Modification A solid, 0.089 g of distilled water and 10 mL of acetonitrile are added to a glass vial. The mixture is stirred vigorously at 20° C. for 18 hours. The mixture is filtered using vacuum and the wet cake is dried in a VTGA cell at approximately 50° C. and 20 mbar for approximately 5 hours.
1.2137 g of Modification A solids and 15 mL of anhydrous THF, 99.9%, are added to a glass vial. The mixture is heated to 45° C. with vigorous stirring. After slurrying at 45° C. for approximately 19 hours, the sample is filtered by vacuum and the wet cake is dried using the VTGA at approximately 50° C. and 20 mbar for approximately 5 hours.

Data set [2] is described as follows: Solubility in common process solvents.
A short description of data set [3]: Water loss as a function of temperature by TG/DTA (loss on drying, thermal transitions). As to conditions: for Loss On Drying (LOD) (%): total water loss by thermogravimetry, rt-295° C., 10°/min; for LOD (thermal transitions): DTA signals, temperature at which the water is lost. An excerpt:
(ii) Thermogravimetric/Differential Thermal Analysis (TG/DTA) […]
The data listed below show the total water loss (LOD by thermogravimetry (TG)) and thermal transitions (DTA signals) show the temperature at which the water is lost.

The nature of data set [4]: Humidity microbalance analysis (VTI), moisture sorption at 25° C. As to conditions: for hygroscopicity / moisture uptake in words: variations in humidity. An excerpt:
Thus, Modification C retains a stable weight from 0% relative humidity to 80% relative humidity while Modification A loses water with decreasing humidity and gains moisture with increasing humidity. With Modification C, a re-hydration step and the possible variability in water content between batches may thus be eliminated.
Modification N is particularly suitable for industrial scale-up. It is a crystalline anhydrous form.
Modification O is particularly suitable for industrial scale-up. It is a crystalline anhydrous form.

Data set [5] in a line: Physical stability of the crystalline forms (relative humidity, absorption-desorption isotherm FIG. 1, temperature, storage). As to conditions: for physical stability (change into another form): storage / ambient conditions.
A short description of data set [6]: Dynamic vapor absorption experiment. The following applies: dried product of Example 20. The protocol:
2.0 g of Modification A, 17 mL of THF and 17 mL of 200-proof ethanol are added to a jacketed 100-mL glass reactor equipped with an overhead stirrer. The mixture is heated to approximately 50° C. with vigorous agitation to obtain a clear solution. To the warm solution, 3 mL of heptanes are added. In a small glass vial, 0.02 g of seed particles (Modification C, prepared from a previous batch) are added to 1 mL of heptanes, and the slurry is sonicated for approximately 1 minute. The seed slurry is then added to the warm solution to obtain a turbid solution at 50° C. To the turbid solution, 35 mL of heptanes are added as follows. First, 5 mL of heptanes are added over a 30-min period, followed by 75-min hold. Subsequently, an additional 30 m L of heptanes are added over 1.5 hours. The resulting thick slurry is cooled to 10° C. in 50 minutes. The slurry is filtered by vacuum, and the wet cake is washed with 25 mL of anhydrous THF and dried at 65° C. and 10 mbar. […] Based on Karl Fisher analysis, the dried solid contained 3.6% water.

Data set [7] is described as follows: Hygroscopicity (statement, no method given).

Take `O=C([O-])C[C@H]1CC[C@H](c2ccc(-c3ccc(Nc4ccc(C(F)(F)F)nc4)cn3)cc2)CC1.[Na+]` [Modification A, sodium salt of (4-{4-[5-(6-trifluoromethyl-pyridin-3-ylamino)-pyridin-2-yl]-phenyl}-cyclohexyl)-acetic acid]: the “total mass gain due to moisture uptake upon opening the cell” value in data set [1] (after drying, 1000 mbar, ambient temperature, plateau at ca. 90 hours) is given as 10.4%. Moreover, the figures for the hygroscopicity in words result in data set [1] and in data set [5] (sorption profile FIG. 1) were “highly hygroscopic” and “very hygroscopic”, respectively. Further, the “time until sample mass decreases to a steady value (drying complete)” value in data set [1] was “about 18 hours”. The “solubility in common process solvents” value in data set [2] is recorded as “relatively low”. In addition, in data set [3], the “Loss On Drying (LOD) (%)” value worked out at 9.1%. Also, the “relative humidity at which moisture gain starts / becomes significant” value in data set [4] is listed as 10 % relative humidity. The “Mass uptake (% water absorbed)” value in data set [4] (0 % residual humidity) is 0.0%; in data set [4] (10 % residual humidity), 3.9%; in data set [4] (50 % residual humidity), 12.0%; in data set [4] (60 % residual humidity), 12.0%; in data set [4] (70 % residual humidity) it was 17.3%; in data set [4] (79 % residual humidity) it was 17.5%. The “Mass uptake (% water absorbed)” value in data set [4] (90 % residual humidity) is recorded as 17.4%; in data set [4] (95 % residual humidity), 17.1%. For the same molecule, in data set [4], the “hygroscopicity / moisture uptake in words” value is reported as “takes up much more moisture compared to Modification C”. The “physical stability (change into another form)” value in data set [5] was “converts to another form in samples that have not been refrigerated”.
In the case of `O=C([O-])C[C@H]1CC[C@H](c2ccc(-c3ccc(Nc4ccc(C(F)(F)F)nc4)cn3)cc2)CC1.[Na+]` [Modification C, sodium salt of (4-{4-[5-(6-trifluoromethyl-pyridin-3-ylamino)-pyridin-2-yl]-phenyl}-cyclohexyl)-acetic acid], the “mass change upon opening the cell to the ambient environment” value in data set [1] (Example 17, after drying at 50° C. and 20 mbar, 30%-56% relative humidity) is given as “no mass change occurs”. The “mass gain when the dried solid was exposed to air” value in data set [1] (Example 18, approximately 15 hours at 20° C. and 43-59% relative humidity) was “No mass gain was observed”. Also, in data set [1] (after drying, 1000 mbar, ambient temperature), the “sample mass change upon opening the cell” value is “the sample mass does not change”. The hygroscopicity in words entry is listed as “not hygroscopic” in data set [1] (listed as Form C) and “much lower hygroscopicity than Modification A” in data set [6]. Moreover, the “time until sample mass decreases to a steady value (drying complete)” value in data set [1] is reported as “less than 1 hours”. Besides, the “mass uptake of moisture” value in data set [6] (from 0 to 80% relative humidity) is reported as 0.3%. For the same molecule, the “LOD (thermal transitions)” value in data set [3] (listed as C) and in data set [3] (listed as modification C) was 126 °C each time. Also, the “Loss On Drying (LOD) (%)” value in data set [3] came out at 2.8%. Besides, the “Mass uptake (% water absorbed)” value in data set [4] (0 % residual humidity) came out at 0.0%; in data set [4] (10 % residual humidity) it was 0.0%; in data set [4] (50 % residual humidity), 0.1%; in data set [4] (60 % residual humidity) it was 0.2%; in data set [4] (70 % residual humidity) it was 0.4%; in data set [4] (79 % residual humidity), 0.8%. Besides, the “Mass uptake (% water absorbed)” value worked out at 12.0% in data set [4] (90 % residual humidity) and 15.6% in data set [4] (95 % residual humidity). Besides, in data set [4] (listed as Form C), the “relative humidity at which moisture gain starts / becomes significant” value is greater than 80 % relative humidity. Further, in data set [4], the “hygroscopicity / moisture uptake in words” value was “does not lose or gain moisture”. The “temperature above which water is lost” value in data set [5] (heating) is “over 85 °C”. Further, the “physical stability (change into another form)” value in data set [5] was “does not change into another form under ambient conditions”.
For `O=C([O-])C[C@H]1CC[C@H](c2ccc(-c3ccc(Nc4ccc(C(F)(F)F)nc4)cn3)cc2)CC1.[Na+]` [Modification K, sodium salt of (4-{4-[5-(6-trifluoromethyl-pyridin-3-ylamino)-pyridin-2-yl]-phenyl}-cyclohexyl)-acetic acid], the hygroscopicity in words entry in data set [7] is “low hygroscopicity”. Besides, in data set [3] (listed as K), the “LOD (thermal transitions)” value came out at 134.5 °C and the “Loss On Drying (LOD) (%)” value was determined as 2.4%.
